Here are results for 15 compounds from patent US12139492B2 (Endotarget Inc., priority 2021, dated 2024).

One test deals with Mino cells. The experiment in a line: Antiproliferative effect, MTS cell viability assay, Mino cells. It is filed as cell-based. As to conditions: Homo sapiens, MINO, Mino mantle cell lymphoma cells; read-out: IC50 (anti-proliferation) Mino cells. The method, then: (§1) Antiproliferative effect of the exemplary compounds was assessed in B-cell malignancy models.
(§2) To assess the effect of the exemplary compounds on cell viability in B-cell malignancy models by degradation of BTK protein, Mino and JeKo-1 cells were treated with varying concentrations of Ibrutinib (0, 0.001, 0.01, 0.1, 1, 10 μM). Under these conditions, cell viability was determined by an MTS assay. Cytotoxicity was assayed by the determination of reduced tetrazolium (formazan) created by metabolically active cells as detected at 490 nm absorbance using a microplate reader (BMG Labtech, Cary, NC, USA).
(§3) The exemplary compounds attenuated the viability of Mino and JeKo-1 cells in a concentration-dependent manner at 72 h post treatment. Results are shown in Table 1 for each exemplary compound.
For orientation: Formazan colour is commonly taken as a measure of viable cells.

In another test the test system is JeKo-1 cells. Description: Antiproliferative effect, MTS cell viability assay, JeKo-1 cells. It is filed as cell-based. Conditions: Homo sapiens; JeKo-1 mantle cell lymphoma cells; read-out: IC50 (anti-proliferation) JeKO-1 cells. On the procedure:
as §1, §2, §3

The next test concerns the target BTK (Homo sapiens, UniProt Q06187). Description: Degradation of BTK protein in Namalwa cells (Western blot; DC50, Dmax). As to conditions: for DC50: BTK degradation, cell line not given. In general terms: A western blot detects proteins with antibodies after separation by electrophoresis.

Chain of BTK (Q06187 whole entry): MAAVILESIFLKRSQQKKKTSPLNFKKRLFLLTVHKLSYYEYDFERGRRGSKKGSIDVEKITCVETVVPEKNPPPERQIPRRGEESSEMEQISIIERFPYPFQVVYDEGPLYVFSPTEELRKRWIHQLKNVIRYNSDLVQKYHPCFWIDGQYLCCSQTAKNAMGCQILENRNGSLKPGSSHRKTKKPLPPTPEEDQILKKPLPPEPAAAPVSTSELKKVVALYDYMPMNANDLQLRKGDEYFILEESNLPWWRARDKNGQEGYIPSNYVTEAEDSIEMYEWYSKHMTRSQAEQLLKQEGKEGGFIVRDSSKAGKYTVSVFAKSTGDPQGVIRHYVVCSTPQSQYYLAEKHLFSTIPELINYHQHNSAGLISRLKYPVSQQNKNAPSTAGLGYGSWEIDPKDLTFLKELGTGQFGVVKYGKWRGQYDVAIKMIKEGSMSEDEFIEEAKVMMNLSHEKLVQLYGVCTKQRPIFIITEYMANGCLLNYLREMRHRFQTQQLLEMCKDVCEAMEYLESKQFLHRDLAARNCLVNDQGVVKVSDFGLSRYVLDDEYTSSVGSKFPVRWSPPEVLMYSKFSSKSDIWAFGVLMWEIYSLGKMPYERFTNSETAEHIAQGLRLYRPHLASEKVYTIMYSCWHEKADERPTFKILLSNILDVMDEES

One may read the Dmax as the greatest extent of degradation seen. Low values mean a partial loss of target, high ones a fuller loss of target. One may read the DC50 as the midpoint of the concentration-degradation curve. A lower DC50 goes with degradation at low concentration. `Nc1ncnc2c1c(-c1ccc(Oc3ccccc3)cc1)nn2C1CCN(C2CCN(CCCN3CCN(c4ccc5c(c4)CN(C4CCC(=O)NC4=O)C5=O)CC3)CC2)CC1` (stereo not drawn) [Compound 222, 3-(5-(4-(3-(4-(4-amino-3-(4-phenoxyphenyl)-1H-pyrazolo[3,4-d]pyrimidin-1-yl)-[1,4′-bipiperidin]-1′-yl)propyl)piperazin-1-yl)-1-oxoisoindolin-2-yl)piperidine-2,6-dione]: the IC50 in the test on Mino cells lay in the range of 1 to 10 µM. Further, the IC50 with JeKo-1 cells is 1 to 10 µM. At BTK, this compound had a Dmax above 90% and a DC50 of 10 to 50 nM.
Consider `Nc1ncnc2c1c(-c1ccc(Oc3ccccc3)cc1)nn2C1CCN(C2CCN(CCCN3CCC(c4ccc5c(c4)C(=O)N(C4CCC(=O)NC4=O)C5=O)CC3)CC2)CC1` (stereo not drawn) [Compound 223, 5-(1-(3-(4-(4-amino-3-(4-phenoxyphenyl)-1H-pyrazolo[3,4-d]pyrimidin-1-yl)-[1,4′-bipiperidin]-1′-yl)propyl)piperidin-4-yl)-2-(2,6-dioxopiperidin-3-yl)isoindoline-1,3-dione], for which the IC50 with Mino cells and in the test on JeKo-1 cells was 1 to 10 µM throughout. The compound further displayed a Dmax on BTK above 75%. The compound also displayed a DC50 on BTK of 10 to 50 nM.
On to `Nc1ncnc2c1c(-c1ccc(Oc3ccccc3)cc1)nn2C1CCN(C2CCN(CCCN3CCC(c4ccc5c(c4)CN(C4CCC(=O)NC4=O)C5=O)CC3)CC2)CC1` (stereo not drawn) [Compound 224, 3-(5-(1-(3-(4-(4-amino-3-(4-phenoxyphenyl)-1H-pyrazolo[3,4-d]pyrimidin-1-yl)-[1,4′-bipiperidin]-1′-yl)propyl)piperidin-4-yl)-1-oxoisoindolin-2-yl)piperidine-2,6-dione], for which, in the test on Mino cells, the IC50 lay within 1 to 10 µM. Besides, the IC50 with JeKo-1 cells lay in the range of 1 to 10 µM. For the same compound, on BTK, the Dmax was above 75% and the DC50 was 10 to 50 nM.
In the case of `Nc1ncnc2c1c(-c1ccc(Oc3ccccc3)cc1)nn2C1CCN(C2CCN(CCCC3CCN(c4ccc5c(c4)C(=O)N(C4CCC(=O)NC4=O)C5=O)CC3)CC2)CC1` (stereo not drawn) [Compound 225, 5-(4-(3-(4-(4-amino-3-(4-phenoxyphenyl)-1H-pyrazolo[3,4-d]pyrimidin-1-yl)-[1,4′-bipiperidin]-1′-yl)propyl)piperidin-1-yl)-2-(2,6-dioxopiperidin-3-yl)isoindoline-1,3-dione], the IC50 with Mino cells and in the test with JeKo-1 cells was above 10 µM throughout. In addition, the Dmax on BTK is above 75%. Besides, the DC50 at BTK was above 50 nM.
In the case of `Nc1ncnc2c1c(-c1ccc(Oc3ccccc3)cc1)nn2C1CCN(C2CCN(CCCC3CCN(c4ccc5c(c4)CN(C4CCC(=O)NC4=O)C5=O)CC3)CC2)CC1` (stereo not drawn) [Compound 226, 3-(5-(4-(3-(4-(4-amino-3-(4-phenoxyphenyl)-1H-pyrazolo[3,4-d]pyrimidin-1-yl)-[1,4′-bipiperidin]-1′-yl)propyl)piperidin-1-yl)-1-oxoisoindolin-2-yl)piperidine-2,6-dione], in the test with Mino cells, the IC50 lay within 1 to 10 µM. Moreover, the IC50 in the test on JeKo-1 cells was above 10 µM. At BTK, this compound yielded a Dmax above 75% and a DC50 of 10 to 50 nM.
Regarding `Nc1ncnc2c1c(-c1ccc(Oc3ccccc3)cc1)nn2C1CCN(C2CCN(C(=O)N3CCC(c4ccc5c(c4)C(=O)N(C4CCC(=O)NC4=O)C5=O)CC3)CC2)CC1` (stereo not drawn) [Compound 227, 5-(1-(4-(4-amino-3-(4-phenoxyphenyl)-1H-pyrazolo[3,4-d]pyrimidin-1-yl)-[1,4′-bipiperidine]-1′-carbonyl)piperidin-4-yl)-2-(2,6-dioxopiperidin-3-yl)isoindoline-1,3-dione], the IC50 with Mino cells was above 10 µM. Further, in the test with JeKo-1 cells, the IC50 was above 10 µM. Besides, on BTK, the greatest degradation seen (Dmax) was above 50% and the DC50 is above 50 nM.
Consider `Nc1ncnc2c1c(-c1ccc(Oc3ccccc3)cc1)nn2C1CCN(C2CCN(C(=O)N3CCC(c4ccc5c(c4)CN(C4CCC(=O)NC4=O)C5=O)CC3)CC2)CC1` (stereo not drawn) [Compound 228, 3-(5-(1-(4-(4-amino-3-(4-phenoxyphenyl)-1H-pyrazolo[3,4-d]pyrimidin-1-yl)-[1,4′-bipiperidine]-1′-carbonyl)piperidin-4-yl)-1-oxoisoindolin-2-yl)piperidine-2,6-dione], for which the IC50 with Mino cells was above 10 µM. The IC50 with JeKo-1 cells is above 10 µM. On BTK, this compound displayed a Dmax above 50% and a DC50 above 50 nM.
For the compound `Nc1ncnc2c1c(-c1ccc(Oc3ccccc3)cc1)nn2C1CCN(C2CCN(C(=O)N3CCN(c4ccc5c(c4)C(=O)N(C4CCC(=O)NC4=O)C5=O)CC3)CC2)CC1` (stereo not drawn) [Compound 229, 5-(4-(4-(4-amino-3-(4-phenoxyphenyl)-1H-pyrazolo[3,4-d]pyrimidin-1-yl)-[1,4′-bipiperidine]-1′-carbonyl)piperazin-1-yl)-2-(2,6-dioxopiperidin-3-yl)isoindoline-1,3-dione], the IC50 in the test with Mino cells was above 10 µM. The IC50 in the test with JeKo-1 cells fell in the range of 1 to 10 µM. At BTK, this compound gave a Dmax above 50% and a DC50 above 50 nM.
For `Nc1ncnc2c1c(-c1ccc(Oc3ccccc3)cc1)nn2C1CCN(C2CCN(C(=O)N3CCN(c4ccc5c(c4)CN(C4CCC(=O)NC4=O)C5=O)CC3)CC2)CC1` (stereo not drawn) [Compound 230, 3-(5-(4-(4-(4-amino-3-(4-phenoxyphenyl)-1H-pyrazolo[3,4-d]pyrimidin-1-yl)-[1,4′-bipiperidine]-1′-carbonyl)piperazin-1-yl)-1-oxoisoindolin-2-yl)piperidine-2,6-dione] the same measures were 1 to 10 µM, 1 to 10 µM, above 50% and above 50 nM.
For `Nc1ncnc2c1c(-c1ccc(Oc3ccccc3)cc1)nn2C1CCN(C2CCN(C(=O)N3CCC(N4CCN(c5ccc6c(c5)C(=O)N(C5CCC(=O)NC5=O)C6=O)CC4)CC3)CC2)CC1` (stereo not drawn) [Compound 231, 5-(4-(1-(4-(4-amino-3-(4-phenoxyphenyl)-1H-pyrazolo[3,4-d]pyrimidin-1-yl)-[1,4′-bipiperidine]-1′-carbonyl)piperidin-4-yl)piperazin-1-yl)-2-(2,6-dioxopiperidin-3-yl)isoindoline-1,3-dione], the IC50 in the test on Mino cells is 1 to 10 µM. Further, in the test on JeKo-1 cells, the IC50 is 1 to 10 µM. At BTK, the Dmax is above 90% and the DC50 lay in the range of 10 to 50 nM.
`Nc1ncnc2c1c(-c1ccc(Oc3ccccc3)cc1)nn2C1CCN(C2CCN(C(=O)N3CCC(N4CCN(c5ccc6c(c5)CN(C5CCC(=O)NC5=O)C6=O)CC4)CC3)CC2)CC1` (stereo not drawn) [Compound 232, 3-(5-(4-(1-(4-(4-amino-3-(4-phenoxyphenyl)-1H-pyrazolo[3,4-d]pyrimidin-1-yl)-[1,4′-bipiperidine]-1′-carbonyl)piperidin-4-yl)piperazin-1-yl)-1-oxoisoindolin-2-yl)piperidine-2,6-dione]: the IC50 with Mino cells and in the test with JeKo-1 cells was 1 to 10 µM throughout. On BTK, this compound registered a Dmax above 90%. Also, the DC50 at BTK was below 10 nM.
Consider `Nc1ncnc2c1c(-c1ccc(Oc3ccccc3)cc1)nn2C1CCN(C2CCN(C(=O)N3CCN(C4CCN(c5ccc6c(c5)C(=O)N(C5CCC(=O)NC5=O)C6=O)CC4)CC3)CC2)CC1` (stereo not drawn) [Compound 233, 5-(4-(4-(4-(4-amino-3-(4-phenoxyphenyl)-1H-pyrazolo[3,4-d]pyrimidin-1-yl)-[1,4′-bipiperidine]-1′-carbonyl)piperazin-1-yl)piperidin-1-yl)-2-(2,6-dioxopiperidin-3-yl)isoindoline-1,3-dione], for which the IC50 in the test with Mino cells and in the test on JeKo-1 cells was 1 to 10 µM each time. Besides, the Dmax on BTK is above 75%. Also, the DC50 on BTK was above 50 nM.
Take `Nc1ncnc2c1c(-c1ccc(Oc3ccccc3)cc1)nn2C1CCN(C2CCN(C(=O)N3CCN(C4CCN(c5ccc6c(c5)CN(C5CCC(=O)NC5=O)C6=O)CC4)CC3)CC2)CC1` (stereo not drawn) [Compound 234, 3-(5-(4-(4-(4-(4-amino-3-(4-phenoxyphenyl)-1H-pyrazolo[3,4-d]pyrimidin-1-yl)-[1,4′-bipiperidine]-1′-carbonyl)piperazin-1-yl)piperidin-1-yl)-1-oxoisoindolin-2-yl)piperidine-2,6-dione]: the IC50 with Mino cells is 1 to 10 µM. The IC50 in the test with JeKo-1 cells was in the range of 1 to 10 µM. Also, at BTK, the Dmax was above 75% and the DC50 lay within 10 to 50 nM.
With `Nc1ncnc2c1c(-c1ccc(Oc3ccccc3)cc1)nn2C1CCN(C2CCN(C(=O)N3CCC(N4CCC(c5ccc6c(c5)C(=O)N(C5CCC(=O)NC5=O)C6=O)CC4)CC3)CC2)CC1` (stereo not drawn) [Compound 235, 5-(1′-(4-(4-amino-3-(4-phenoxyphenyl)-1H-pyrazolo[3,4-d]pyrimidin-1-yl)-[1,4′-bipiperidine]-1′-carbonyl)-[1,4′-bipiperidin]-4-yl)-2-(2,6-dioxopiperidin-3-yl)isoindoline-1,3-dione], the IC50 in the test on Mino cells is 1 to 10 µM. In addition, the IC50 in the test on JeKo-1 cells is 1 to 10 µM. Besides, on BTK, the Dmax is above 90% and the DC50 was in the range of 10 to 50 nM.
With `Nc1ncnc2c1c(-c1ccc(Oc3ccccc3)cc1)nn2C1CCN(C2CCN(C(=O)N3CCC(N4CCC(c5ccc6c(c5)CN(C5CCC(=O)NC5=O)C6=O)CC4)CC3)CC2)CC1` (stereo not drawn) [Compound 236, 3-(5-(1′-(4-(4-amino-3-(4-phenoxyphenyl)-1H-pyrazolo[3,4-d]pyrimidin-1-yl)-[1,4′-bipiperidine]-1′-carbonyl)-[1,4′-bipiperidin]-4-yl)-1-oxoisoindolin-2-yl)piperidine-2,6-dione], in the test with Mino cells, the IC50 was in the range of 1 to 10 µM. Besides, in the test on JeKo-1 cells, the IC50 is 1 to 10 µM. At BTK, this compound registered a Dmax above 90% and a DC50 of 10 to 50 nM.
